In ChEMBL document CHEMBL3885861, “Open TG-GATES”:

Species on record: Rattus norvegicus
Assay: Open TG-GATES - Regimen: Daily Repeat
Assay type: toxicity, organism-based, Sprague-Dawley
Design: regimen Daily Repeat, gender Male, age 6 weeks
Settings: in vivo, po, 0 mg/kg, […], route gavage, dose level Control; for KIDNEY_TOTAL: tissue Kidney; for LIVER: tissue Liver; for A/G / ALP / ALT / AST / BUN / CRE / Ca / Cl / DBIL / GLC / IP / K / LDH / Na / PL / RALB / TBIL / TC / TG / TP / gamma-GTP: tissue Plasma

Compound `CN(CCOc1ccc(CC2SC(=O)NC2=O)cc1)c1ccccn1.O=C(O)/C=C\C(=O)O` (configuration not stated) [ROSIGLITAZONE MALEATE] has a Hb (tissue Blood, time 28 day) of 14.6 g/dL, a Ht (tissue Blood, time 28 day) of 44% and a Lym (tissue Blood, time 28 day) of 75.2%. The MCH (tissue Blood, time 28 day) was 19.5 pg, the MCHC (tissue Blood, time 28 day) was 33.2% and the MCV (tissue Blood, time 28 day) was 58.9 fL. For the same compound, the Mono (tissue Blood, time 28 day) was 7.6%, the Neu (tissue Blood, time 28 day) was 16.4% and the PT (tissue Blood, time 28 day) was 11.7 s. For the same compound, the Plat (tissue Blood, time 28 day) was 120.2 x10_4/uL, the RBC (tissue Blood, time 28 day) was 747.6 x10_4/ul and the Ret (tissue Blood, time 28 day) was 2.6%. For the same compound, the WBC (tissue Blood, time 28 day) was 114.8 x10_2/uL, the KIDNEY_TOTAL (time 7 day) was 0.7 g and the KIDNEY_TOTAL (time 14 day) was 0.9 g. It also gave a KIDNEY_TOTAL (time 28 day) of 0.9 g, an LIVER (time 7 day) of 12.9 g and an LIVER (time 14 day) of 15.7 g. For the same compound, the LIVER (time 28 day) was 17.1 g, the A/G (time 7 day) was 2 and the ALP (time 7 day) was 1306.8 IU/L. For the same compound, the ALT (time 7 day) was 33.2 IU/L, the AST (time 7 day) was 58.8 IU/L and the BUN (time 7 day) was 18.2 mg/dL. For the same compound, the CRE (time 7 day) was 0.5 mg/dL, the Ca (time 7 day) was 19.5 mg/dL and the Cl (time 7 day) was 104.8 meq/L. For the same compound, the DBIL (time 7 day) was 0.01 mg/dL, the GLC (time 7 day) was 181.4 mg/dL and the IP (time 7 day) was 7.1 mg/dL. The K (time 7 day) was 4.5 meq/L, the LDH (time 7 day) was 79 IU/L and the Na (time 7 day) was 140 meq/L. It also gave a PL (time 7 day) of 148.6 mg/dL, an RALB (time 7 day) of 3.8 g/dL and a TBIL (time 7 day) of 0.028 mg/dL. For the same compound, the TC (time 7 day) was 76.6 mg/dL, the TG (time 7 day) was 138.8 mg/dL and the TP (time 7 day) was 5.7 g/dL. For the same compound, the gamma-GTP (time 7 day) was 0.2 IU/L, the A/G (time 14 day) was 2.1 and the ALP (time 14 day) was 1411 IU/L. For the same compound, the ALT (time 14 day) was 32.8 IU/L, the AST (time 14 day) was 62.4 IU/L and the BUN (time 14 day) was 19 mg/dL. It also gave a CRE (time 14 day) of 0.4 mg/dL, a Ca (time 14 day) of 11.1 mg/dL and a Cl (time 14 day) of 106 meq/L. The DBIL (time 14 day) was 0.01 mg/dL, the GLC (time 14 day) was 186.4 mg/dL and the IP (time 14 day) was 7.2 mg/dL. The K (time 14 day) was 4.5 meq/L, the LDH (time 14 day) was 65 IU/L and the Na (time 14 day) was 143 meq/L. For the same compound, the PL (time 14 day) was 159.4 mg/dL, the RALB (time 14 day) was 3.9 g/dL and the TBIL (time 14 day) was 0.036 mg/dL. The TC (time 14 day) was 76.4 mg/dL, the TG (time 14 day) was 186.4 mg/dL and the TP (time 14 day) was 5.8 g/dL. For the same compound, the gamma-GTP (time 14 day) was 1 IU/L, the A/G (time 28 day) was 1.9 and the ALP (time 28 day) was 1035.6 IU/L. It also gave an ALT (time 28 day) of 29.2 IU/L, an AST (time 28 day) of 55 IU/L and a BUN (time 28 day) of 18.4 mg/dL. The CRE (time 28 day) was 0.4 mg/dL, the Ca (time 28 day) was 10.7 mg/dL and the Cl (time 28 day) was 105 meq/L. It also gave a DBIL (time 28 day) of 0.012 mg/dL, a GLC (time 28 day) of 183 mg/dL and an IP (time 28 day) of 6.1 mg/dL. It also gave a K (time 28 day) of 4.4 meq/L, an LDH (time 28 day) of 68.8 IU/L and a Na (time 28 day) of 139.8 meq/L. It also gave a PL (time 28 day) of 144.8 mg/dL, an RALB (time 28 day) of 3.9 g/dL and a TBIL (time 28 day) of 0.036 mg/dL. For the same compound, the TC (time 28 day) was 73.2 mg/dL, the TG (time 28 day) was 162 mg/dL and the TP (time 28 day) was 5.9 g/dL. The gamma-GTP (time 28 day) was 0.4 IU/L.
